Measured values: patent publication US20120202209A1, “CELL IMAGING METHOD FOR VIEWING MICRORNA BIOGENESIS IN THE CELLS” (Centre National de la Recherche Scientifique - CNRS, priority 2009, published 2012)

Test system: Microprocessor (Drosha and DGCR8) at the C19MC locus
Assay: RNA FISH combined with immunofluorescence: recruitment of the Microprocessor on pri-miRNAs near the C19MC transcription site
Assay type: cell-based, human
Settings: cells treated with Actinomycin; data not shown
Description: To determine whether the Microprocessor can be visualized on the pri-miRNAs of the freshly synthesized C19MC locus, the inventors combined RNA FISH experiments with experiments for detection of proteins by immunofluorescence, according to the techniques familiar to a person skilled in the art. The inventors were thus able to detect the endogenous Drosha or DGCR8 proteins (FIG. 4). The inventors observed a co-localization of intense immunofluorescence signals for Drosha and
Recruitment depends on transcription and probably occurs via interaction with the RNAs, since there is no detection in cells treated with Actinomycin, in which C19MC-HG is not detected near the transcription site of C19MC (data not shown).

Actinomycin was tested. Which “detection of C19MC-HG near the transcription site of C19MC” value did it give?
Its value is “not detected”.

What about the “detection of Microprocessor recruitment on pri-miRNAs” value of the same substance?
The value was “no detection”.
